Test results from patent US20160168140A1, “HETEROCYCLIC COMPOUNDS AS ANTIBIOTIC POTENTIATORS” (priority 2014, published 2016).
Read-outs that look alike come from different tables or passages of the source.

Legend:
Type in all cases: cell-based
Klebsiella pneumoniae = test: MIC shift assay of antibiotics (broth microdilution); conditions: for Colistin & Cmpd MIC shift / Colistin MIC with compound: compound at 10 μM
Experimental: (§1) Minimum inhibitory concentration (MIC) shift assays were performed to determine if the test compounds could alter the MIC of existing antibacterial drugs (e.g., ciprofloxacin and colistin) for E. coli, Acinetobacter baumannii, Klebsiella pneumoniae, Pseudomonas aeruginosa, and Enterobacter cloacae. The MIC shift assay is based on the standard broth microdilution MIC determination protocol of Wiegand et al, Nat Protoc. 3(2):163-75 (2008), with slight modifications that allow for the screening of up to seven test compounds in a single plate.
(§2) On the day before an assay, bacteria were grown overnight in cation-adjusted Mueller Hinton broth (CAMHB; Teknova, Hollister, Calif.) at 37° C. in an orbital shaker and sub-cultured at a 1:200 dilution the following morning. The cells were grown to OD600=0.5 to 0.8 and then diluted to OD600=0.01. From a serial dilution of each antibiotic at (50 μL of 2× concentrated stock solutions) several concentrations were added to the wells of a sterile, transparent round-bottom 96-well plate (Phenix Research Products, Candler, N.C.), and diluted cells (50 μL) were added to the plates for a starting OD600 of 0.005. Then, a test compound (2.5 μL) was added to each well to give a final concentration of 4 or 10 μM. A row of wells lacking test compound but containing the antibiotic was used to determine the MIC of that antibiotic alone. A column of wells lacking both antibiotic and test compound served as a growth control, and an additional column containing only CAMHB was included as a sterile blank control.
(§3) The plates were incubated for 18 to 20 h at 37° C. in an orbital shaker, and the cell density (OD600) was determined the following day in a microplate reader (PolarStar Optima, BMG Labtech). The MIC shift was determined by comparing the MIC of the antibiotic alone to the MIC of the antibiotic plus test compound.

E. coli = test: as above
Experimental: as §1, §2, §3

Pseudomonas aeruginosa = test: as above; conditions: for Colistin & Cmpd MIC shift / Colistin MIC with compound: compound at 10 μM
Experimental: as §1, §2, §3

Burkholderia cepacia = test: Colistin MIC / MIC shift with compound at 10 μM (isolate panel, Table 19); conditions: Burkholderia cepacia 547, Colistin-R
[1] = system: Acinetobacter baumannii (Ab23); test: MIC shift assay of antibiotics (broth microdilution); conditions: for Colistin & Cmpd MIC shift / Colistin MIC with compound: compound at 10 μM; for colistin MIC shift, Ab23 at (compd concentration): fold shift of colistin MIC, nc = no changeover or no shift
Summary of the method: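 Following a modified Wiegand broth microdilution protocol, colistin serial dilutions with or without test compound were set up in round-bottom 96-well plates and inoculated with A. baumannii cells to a starting OD600 of 0.005. Plates were shaken at 37° C. for 18 to 20 h and read at OD600. The fold shift was calculated from colistin MIC alone versus colistin MIC with test compound, with growth and medium-only blank controls.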

Serratia marcescens = test: Colistin MIC / MIC shift with compound at 10 μM (isolate panel, Table 19); conditions: Serratia marcescens 6147, Colistin-R
Providencia stuartii = test: as above; conditions: Providencia stuartii 6644, Colistin-R
Staphylococcus aureus = test: as above; conditions: for Colistin & Cmpd MIC shift / Colistin MIC with compound: compound at 10 μM
Proteus vulgaris = test: as above; conditions: Proteus vulgaris 6240, Colistin-R
[2] = Klebsiella pneumoniae 2237, Colistin-R
[3] = Klebsiella pneumoniae ATCC 13883 (MMX 214), Colistin-S
[4] = Escherichia coli ATCC 25922 (MMX 102), QC, Colistin-S, compound at 10 μM
[5] = Pseudomonas aeruginosa 1582, Colistin-I
[6] = Pseudomonas aeruginosa 6977, Colistin-R
[7] = Pseudomonas aeruginosa ATCC 27853 (MMX 103), QC, Colistin-S
[8] = Acinetobacter baumannii ATCC 19606 (MMX 1630), Colistin-S
[9] = Acinetobacter baumannii Ab23, Colistin-R
[10] = Staphylococcus aureus ATCC 43300 (MMX 5999), MRSA

## Clc1ccc2[nH]cc(-c3ccc(Cl)c(Cl)c3)c2c1 [compound 429]
Klebsiella pneumoniae; [2]
  MIC, agent alone: > 32 µg/mL
  Colistin & Cmpd MIC shift: 128
  Colistin MIC with compound: 0.25 µg/mL
Klebsiella pneumoniae; [3]
  MIC, agent alone: > 32 µg/mL
  Colistin & Cmpd MIC shift: 4
  Colistin MIC with compound: 0.03 µg/mL
E. coli; E. coli (SCR1), compd. concentration 4.0 μM, colistin MIC 0.5-1.0 μg/mL
  Colistin MIC Shift: 4x
E. coli; Escherichia coli ATCC 25922 (MMX 102), QC, Colistin-S
  MIC, agent alone: > 32 µg/mL
E. coli; [4]
  Colistin & Cmpd MIC shift: 8
  Colistin MIC with compound: 0.015 µg/mL
Pseudomonas aeruginosa; [5]
  MIC, agent alone: > 32 µg/mL
  Colistin & Cmpd MIC shift: 16
  Colistin MIC with compound: 0.25 µg/mL
Pseudomonas aeruginosa; [6]
  MIC, agent alone: > 32 µg/mL
  Colistin & Cmpd MIC shift: 64
  Colistin MIC with compound: 1 µg/mL
Pseudomonas aeruginosa; [7]
  MIC, agent alone: > 32 µg/mL
  Colistin & Cmpd MIC shift: 2
  Colistin MIC with compound: 0.12 µg/mL
Burkholderia cepacia
  MIC, agent alone: > 32 µg/mL
Burkholderia cepacia; compound at 10 μM
  Colistin & Cmpd MIC shift: 4
  Colistin MIC with compound: > 16 µg/mL
[1]; A. baumannii (MDR Ab), compd. concentration 4.0 μM, colistin MIC 0.5-1.0 μg/mL
  Colistin MIC Shift: 2x
[1]; [8]
  MIC, agent alone: > 32 µg/mL
  Colistin & Cmpd MIC shift: 8
  Colistin MIC with compound: 0.03 µg/mL
[1]; [9]
  MIC, agent alone: > 32 µg/mL
  Colistin & Cmpd MIC shift: 2133
  Colistin MIC with compound: 0.03 µg/mL
[1]; Compd. No. 429 concentration 8 μM, antibiotic Ciprofloxacin, A. baumannii (Ab23)
  MIC Shift of Ciprofloxacin: ≧32x
[1]; Compd. No. 429 concentration 8 μM, antibiotic Levofloxacin, A. baumannii (Ab23)
  MIC Shift of Levofloxacin: ≧64x
[1]; Compd. No. 429 concentration 8 μM, antibiotic Meropenem, A. baumannii (Ab23)
  MIC Shift of Meropenem: ≧16x
[1]; Compd. No. 429 concentration 8 μM, antibiotic Tobramycin, A. baumannii (Ab23)
  MIC Shift of Tobramycin: ≧16x
[1]; compound concentration 1 μM
  colistin MIC shift, Ab23 at (compd concentration): 4x (1 μM);
[1]; compound concentration 2 μM
  colistin MIC shift, Ab23 at (compd concentration): ≧16x (2μM)
Serratia marcescens
  MIC, agent alone: > 32 µg/mL
Serratia marcescens; compound at 10 μM
  Colistin & Cmpd MIC shift: 256
  Colistin MIC with compound: 0.25 µg/mL
Providencia stuartii
  MIC, agent alone: > 32 µg/mL
Providencia stuartii; compound at 10 μM
  Colistin & Cmpd MIC shift: 4
  Colistin MIC with compound: 16 µg/mL
Staphylococcus aureus
  MIC, agent alone: 2 µg/mL
  Colistin & Cmpd MIC shift: 4267
  Colistin MIC with compound: ≤ 0.015 µg/mL
Staphylococcus aureus; [10]
  MIC, agent alone: 2 µg/mL
  Colistin & Cmpd MIC shift: 4267
  Colistin MIC with compound: ≤ 0.015 µg/mL
Proteus vulgaris
  MIC, agent alone: > 32 µg/mL
Proteus vulgaris; compound at 10 μM
  Colistin & Cmpd MIC shift: 1067
  Colistin MIC with compound: 0.06 µg/mL
